In ChEMBL document CHEMBL4411312, “Design, Synthesis, and Biological Evaluation of New 1-(Aryl-1 H-pyrrolyl)(phenyl)methyl-1 H-imidazole Derivatives as Antiprotozoal Agents” (J Med Chem, 2019):

Experiments:
[1] = Selectivity index, ratio of CC50 for rat L6 cels to IC50 for Leishmania donovani MHOM/ET/67/L82 axenic amastigote; assay type: toxicity; settings: L6 cells, read-out: Ratio IC50
Cytochrome P450 3A4 = Cytochrome P450 3A4 (Homo sapiens, UniProt P08684); assay: Inhibition of human CYP3A4 in presence of NADPH by luciferase reporter gene assay; assay type: ADME
Sequence of Cytochrome P450 3A4 (P08684 whole entry): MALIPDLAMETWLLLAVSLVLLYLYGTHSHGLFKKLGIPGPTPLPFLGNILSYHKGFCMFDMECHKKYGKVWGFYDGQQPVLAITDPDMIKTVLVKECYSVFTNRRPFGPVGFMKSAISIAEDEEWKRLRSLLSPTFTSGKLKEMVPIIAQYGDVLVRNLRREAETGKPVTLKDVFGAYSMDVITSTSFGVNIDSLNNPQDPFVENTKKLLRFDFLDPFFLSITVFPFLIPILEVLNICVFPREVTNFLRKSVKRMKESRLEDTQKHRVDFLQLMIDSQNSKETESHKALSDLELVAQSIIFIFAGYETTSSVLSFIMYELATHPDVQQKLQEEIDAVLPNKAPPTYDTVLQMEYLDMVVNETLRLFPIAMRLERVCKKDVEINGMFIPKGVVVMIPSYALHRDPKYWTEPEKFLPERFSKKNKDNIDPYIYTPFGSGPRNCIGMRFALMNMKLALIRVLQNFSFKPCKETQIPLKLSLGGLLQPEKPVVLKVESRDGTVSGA

Trypanosoma cruzi [2] = assay: Antiprotozoal activity against Trypanosoma cruzi Tulahuen C2C4 amastigotes infected in rat L6 cells after 96 hrs by inverted microscopic analysis; assay type: functional, organism-based; settings: Tulahuen C2C4, L6, 96 h
[3] = biological target: Sterol 14-alpha demethylase (Trypanosoma cruzi (strain CL Brener), UniProt Q7Z1V1); assay: Binding affinity to Trypanosoma cruzi CYP51 by UV-vis spectrophotometry
Sequence of Sterol 14-alpha demethylase (Q7Z1V1 whole entry): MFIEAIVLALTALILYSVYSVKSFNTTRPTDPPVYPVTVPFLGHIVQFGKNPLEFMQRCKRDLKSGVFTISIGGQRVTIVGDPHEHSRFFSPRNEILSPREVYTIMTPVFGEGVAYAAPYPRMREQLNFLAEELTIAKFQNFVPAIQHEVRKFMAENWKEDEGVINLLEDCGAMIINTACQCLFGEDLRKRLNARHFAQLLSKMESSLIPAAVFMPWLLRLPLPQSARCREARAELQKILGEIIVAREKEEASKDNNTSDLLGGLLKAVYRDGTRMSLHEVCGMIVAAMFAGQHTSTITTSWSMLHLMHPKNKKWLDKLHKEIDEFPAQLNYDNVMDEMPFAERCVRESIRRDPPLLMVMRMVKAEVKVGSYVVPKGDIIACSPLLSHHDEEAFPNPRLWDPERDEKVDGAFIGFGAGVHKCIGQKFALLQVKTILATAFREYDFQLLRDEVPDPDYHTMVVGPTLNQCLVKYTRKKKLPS

Trypanosoma cruzi [4] = assay: Potency index, ratio of benznidazole IC50 to compound IC50 for Trypanosoma cruzi Tulahuen C2C4 amastigotes infected in rat L6 cells after 96 hrs by inverted microscopic analysis; assay type: functional
[5] = tested on: Trypanosoma brucei rhodesiense; assay: Antiprotozoal activity against Trypanosoma brucei rhodesiense STIB900 trypomastigotes after 72 hrs by Alamar Blue dye-based fluorometric analysis; assay type: functional, organism-based; settings: STIB900, 72 h
[6] = Toxicity in BALB/c mouse infected with Trypanosoma cruzi CL Brener trypomastigotes assessed as hunched posture at 25 mg/kg, ip bid treated for 4 consecutive days starting at 3 days post infection; assay type: organism-based; settings: in vivo, 72 h
Trypanosoma cruzi [7] = assay: Antiprotozoal activity against Trypanosoma cruzi CL Brener trypomastigotes infected in BALB/c mouse assessed as reduction in parasitemia at 25 mg/kg, ip bid treated for 4 consecutive days starting at 3 days post infection by bioluminescence assay relative to control; assay type: functional; set-up: scale not given: the % may be the effect or the level left
[8] = Toxicity in BALB/c mouse infected with Trypanosoma cruzi CL Brener trypomastigotes assessed as reduced mobility at 25 mg/kg, ip bid treated for 4 consecutive days starting at 3 days post infection; assay type: organism-based; settings: in vivo, 72 h
Plasmodium falciparum = assay: Antiprotozoal activity against erythrocytic stage of Plasmodium falciparum K1 after 48 hrs by [3H]- hypoxanthine incorporation assay; assay type: functional, organism-based
Cytochrome P450 1A2 = biological target: T1, Cytochrome P450 1A2 (Homo sapiens, UniProt P05177); assay: Inhibition of human CYP1A2 in presence of NADPH by luciferase reporter gene assay; assay type: ADME
T1 sequence (P05177 whole entry): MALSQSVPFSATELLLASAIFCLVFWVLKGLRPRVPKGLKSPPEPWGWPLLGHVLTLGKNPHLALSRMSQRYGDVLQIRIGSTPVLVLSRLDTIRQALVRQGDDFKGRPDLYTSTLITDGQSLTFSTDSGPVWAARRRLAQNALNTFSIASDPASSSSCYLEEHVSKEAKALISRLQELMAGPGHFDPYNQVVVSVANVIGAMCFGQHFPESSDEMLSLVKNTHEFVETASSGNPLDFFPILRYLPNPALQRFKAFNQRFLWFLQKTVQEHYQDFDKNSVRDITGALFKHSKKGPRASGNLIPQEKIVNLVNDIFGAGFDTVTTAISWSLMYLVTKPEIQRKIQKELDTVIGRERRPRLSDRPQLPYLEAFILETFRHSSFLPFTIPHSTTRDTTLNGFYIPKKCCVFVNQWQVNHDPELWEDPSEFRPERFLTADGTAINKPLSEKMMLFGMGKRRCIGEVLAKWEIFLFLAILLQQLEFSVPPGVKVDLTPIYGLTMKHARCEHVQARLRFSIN

[9] = Cytotoxicity against rat L6 cels assessed as reduction in cell viability after 72 hrs by Alamar Blue dye-based fluorometric analysis; settings: L6 cells
[10] = Toxicity in BALB/c mouse infected with Trypanosoma cruzi CL Brener trypomastigotes assessed as loss of body weight at 25 mg/kg, ip bid treated for 4 consecutive days starting at 3 days post infection; assay type: organism-based; settings: in vivo, 72 h
Leishmania donovani = assay: Antiprotozoal activity against Leishmania donovani MHOM/ET/67/L82 axenic amastigote after 72 hrs by inverted microscopic analysis; assay type: functional, organism-based; settings: MHOM/ET/67/L82, 72 h
[11] = Selectivity index, ratio of CC50 for rat L6 cels to IC50 for erythrocytic stage of Plasmodium falciparum K1; assay type: toxicity; settings: L6 cells, read-out: Ratio IC50
Cytochrome P450 2D6 = Cytochrome P450 2D6 (Homo sapiens, UniProt P10635); assay: Inhibition of human CYP2D6 in presence of NADPH by luciferase reporter gene assay; assay type: ADME
Sequence of Cytochrome P450 2D6 (P10635 whole entry): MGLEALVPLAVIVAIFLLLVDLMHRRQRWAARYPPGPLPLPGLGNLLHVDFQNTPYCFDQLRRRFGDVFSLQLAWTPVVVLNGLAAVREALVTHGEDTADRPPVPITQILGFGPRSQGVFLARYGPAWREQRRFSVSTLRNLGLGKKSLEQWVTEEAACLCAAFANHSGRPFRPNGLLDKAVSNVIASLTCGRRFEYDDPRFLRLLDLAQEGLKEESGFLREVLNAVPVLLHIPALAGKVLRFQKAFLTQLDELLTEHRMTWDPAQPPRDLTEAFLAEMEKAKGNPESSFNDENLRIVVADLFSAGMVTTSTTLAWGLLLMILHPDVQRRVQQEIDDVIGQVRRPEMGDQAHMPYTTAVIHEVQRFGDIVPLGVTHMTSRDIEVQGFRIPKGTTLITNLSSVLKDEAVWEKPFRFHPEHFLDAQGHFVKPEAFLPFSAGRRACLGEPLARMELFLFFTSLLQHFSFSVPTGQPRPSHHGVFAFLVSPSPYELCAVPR

[12] = Toxicity in BALB/c mouse infected with Trypanosoma cruzi CL Brener trypomastigotes assessed as lack of grooming at 25 mg/kg, ip bid treated for 4 consecutive days starting at 3 days post infection; assay type: organism-based; settings: in vivo, 72 h
CYP1A2 = biological target: T2, CYP1A2 (Homo sapiens, UniProt P05177); assay: Safety index, ratio of IC50 for test compound to IC50 for furafylline for inhibition of human CYP1A2 in presence of NADPH by luciferase reporter gene assay; assay type: ADME; settings: read-out: Ratio IC50
T2 sequence (P05177 whole entry): T1 sequence (P05177 whole entry)

IC50 (Cytochrome P450 3A4)	IC50 (Trypanosoma cruzi [2])	Kd [3]	IC50 [5]	IC50 (Plasmodium falciparum)	IC50 (Cytochrome P450 1A2)	IC50 (Leishmania donovani)	IC50 (Cytochrome P450 2D6)	Compound	selectivity ratio [1]	Ratio IC50 (Trypanosoma cruzi [4])	Activity [6]	Activity (Trypanosoma cruzi [7])	Activity [8]	CC50 at 72 h [9]	Activity [10]	selectivity ratio [11]	Activity [12]	selectivity ratio (CYP1A2)
1.4 µM	0.003 µM	5.5 µM	7.39 µM	0.78 µM	0.4 µM	3.01 µM	4 µM	Clc1ccc(-c2cc(C(c3ccc(Cl)cc3)n3ccnc3)c[nH]2)cc1 (configuration not stated)	2	330 - 825	Non-Toxic	99.5%	Non-Toxic	6.65 µM	Non-Toxic	9	Non-Toxic	–
0.8 µM	0.035 µM	–	–	–	7 µM	–	1.3 µM	Clc1ccc(-c2c[nH]cc2C(c2ccc(Cl)cc2Cl)n2ccnc2)cc1 (racemic)	–	–	–	–	–	–	–	–	–	3
